Consider 24 compounds from patent US4777167A, “Pharmaceutically useful substituted thiacycloalkeno [3,2-b]pyridines, compositions and method of use” (Ortho Pharmaceutical Corporation, priority 1987, dated 1988).

For one test, the system named is Aorta Muscle. As to the kind of experiment: Inhibition of aorta muscle contraction. Type of test: cell-based. The note with it: Table II; for inhibition at 0.1 µM: concentration 0.1 μM.
The target of a further test is T1, calcium channels (Oryctolagus cuniculus, UniProt P15381).
T1 construct: from tissue; host or cells: heart of female New Zealand white rabbits, membrane fraction (42,000×g pellet)
As to the kind of experiment: Inhibition of nitrendipine binding (3H-nitrendipine displacement, rabbit heart membranes). Also noted: species or system rabbit (New Zealand white). The note with it: Table II, 90 min, 4° C. The protocol:
(1) Inhibition of nitrendipine binding to calcium channels.
The assay for inhibition of nitrendipine binding follows the following procedure:
Female, New Zealand white rabbits (1-2 kg) are sacrificed by cervical dislocation, and the heart is immediately removed, cleaned, and chopped into small pieces. The tissue is homogenized in 5× volume of 0.05M Hepes buffer, pH 7.4. The homogenate is centrifuged at 4000×g for 10 minutes; the supernatant is recentrifuged at 42,000×g for 90 minutes. The resulting membrane pellet is resuspended (0.7 ml/g weight) in 0.05M Hepes, pH 7.4 and stored at -70° C. until used. Each tube of the binding assay contains ^3 H- nitrendipine (0.05-0.50 nM), buffer, membranes (0.10 ml), and test compound in a total volume of 1.0 ml. After 90 minutes at 4° C., the bound nitrendipine is separated from the unbound by filtration on Whatman GF/C fibers. After rinsing, the filters are dried and counted in a liquid scintillation counter.
Non-specific binding of ^3 H-nitrendipine (that amount bound in the presence of excess unlabelled nitrendipine) is subtracted from the total bound to obtain specifically bound radiolabeled nitrendipine. The amount of specifically bound nitrendipine in the presence of a test compound is compared to that amount bound in the absence of a compound. A percent displacement (or inhibition) can then be obtained.

The next test deals with trachealis muscle. As to the kind of experiment: Inhibition of calcium dependent smooth muscle contraction (KCl-challenged trachea). The settings on record: Canis lupus familiaris, Table II; for inhibition at 0.1 µM: concentration 0.1 μM; for inhibition at 0.1 µM / inhibition at 2 µM / inhibition at 0.2 µM: read-out: Inhibition Trachea Muscle Contraction % Inhibition; for inhibition at 1 µM: concentration 1.0 μM; for inhibition at 2 µM: concentration 2.0 μM; for inhibition at 0.2 µM: concentration 0.2 μM. The format is cell-based, dog. As to the method:
The test for inhibition of calcium dependent smooth muscle contraction is determined according to the following procedure:
Trachea from dogs sacrificed by excess KCl injection are stored overnight at 4° C. in oxygenated Krebs-Henseleit buffer. Tracheal rings, one cartilage segment wide (5-10 mm), are cut starting from the bronchial end. After cutting the cartilage, the trachealis muscle tissue is suspended in oxygenated Krebs-Henseleit buffer at 37° C. in a 25 ml tissue bath. After a 60 minutes equilibration period, the tissues are challenged with 10 μM carbachol. After 5 minutes the tissues are rinsed and allowed to rest 50 minutes. The tissues are then challenged with 50 mM KCl and, after 30 minutes, the contractions are quantitated. The tissues are then rinsed and reequilibrated for 50 minutes. Test compounds are then added for 10 minutes, and the tissue is rechallenged with 50 mMKcl. After 30 minutes, the contraction is recorded and used to determine the % inhibition of control.
The percent inhibition of smooth muscle contraction is calculated from response data before and after drug treatment. [formula] A rating is assigned to the compound depending upon the percent inhibition obtained.

T1 sequence (P15381 whole entry, other chains not shown): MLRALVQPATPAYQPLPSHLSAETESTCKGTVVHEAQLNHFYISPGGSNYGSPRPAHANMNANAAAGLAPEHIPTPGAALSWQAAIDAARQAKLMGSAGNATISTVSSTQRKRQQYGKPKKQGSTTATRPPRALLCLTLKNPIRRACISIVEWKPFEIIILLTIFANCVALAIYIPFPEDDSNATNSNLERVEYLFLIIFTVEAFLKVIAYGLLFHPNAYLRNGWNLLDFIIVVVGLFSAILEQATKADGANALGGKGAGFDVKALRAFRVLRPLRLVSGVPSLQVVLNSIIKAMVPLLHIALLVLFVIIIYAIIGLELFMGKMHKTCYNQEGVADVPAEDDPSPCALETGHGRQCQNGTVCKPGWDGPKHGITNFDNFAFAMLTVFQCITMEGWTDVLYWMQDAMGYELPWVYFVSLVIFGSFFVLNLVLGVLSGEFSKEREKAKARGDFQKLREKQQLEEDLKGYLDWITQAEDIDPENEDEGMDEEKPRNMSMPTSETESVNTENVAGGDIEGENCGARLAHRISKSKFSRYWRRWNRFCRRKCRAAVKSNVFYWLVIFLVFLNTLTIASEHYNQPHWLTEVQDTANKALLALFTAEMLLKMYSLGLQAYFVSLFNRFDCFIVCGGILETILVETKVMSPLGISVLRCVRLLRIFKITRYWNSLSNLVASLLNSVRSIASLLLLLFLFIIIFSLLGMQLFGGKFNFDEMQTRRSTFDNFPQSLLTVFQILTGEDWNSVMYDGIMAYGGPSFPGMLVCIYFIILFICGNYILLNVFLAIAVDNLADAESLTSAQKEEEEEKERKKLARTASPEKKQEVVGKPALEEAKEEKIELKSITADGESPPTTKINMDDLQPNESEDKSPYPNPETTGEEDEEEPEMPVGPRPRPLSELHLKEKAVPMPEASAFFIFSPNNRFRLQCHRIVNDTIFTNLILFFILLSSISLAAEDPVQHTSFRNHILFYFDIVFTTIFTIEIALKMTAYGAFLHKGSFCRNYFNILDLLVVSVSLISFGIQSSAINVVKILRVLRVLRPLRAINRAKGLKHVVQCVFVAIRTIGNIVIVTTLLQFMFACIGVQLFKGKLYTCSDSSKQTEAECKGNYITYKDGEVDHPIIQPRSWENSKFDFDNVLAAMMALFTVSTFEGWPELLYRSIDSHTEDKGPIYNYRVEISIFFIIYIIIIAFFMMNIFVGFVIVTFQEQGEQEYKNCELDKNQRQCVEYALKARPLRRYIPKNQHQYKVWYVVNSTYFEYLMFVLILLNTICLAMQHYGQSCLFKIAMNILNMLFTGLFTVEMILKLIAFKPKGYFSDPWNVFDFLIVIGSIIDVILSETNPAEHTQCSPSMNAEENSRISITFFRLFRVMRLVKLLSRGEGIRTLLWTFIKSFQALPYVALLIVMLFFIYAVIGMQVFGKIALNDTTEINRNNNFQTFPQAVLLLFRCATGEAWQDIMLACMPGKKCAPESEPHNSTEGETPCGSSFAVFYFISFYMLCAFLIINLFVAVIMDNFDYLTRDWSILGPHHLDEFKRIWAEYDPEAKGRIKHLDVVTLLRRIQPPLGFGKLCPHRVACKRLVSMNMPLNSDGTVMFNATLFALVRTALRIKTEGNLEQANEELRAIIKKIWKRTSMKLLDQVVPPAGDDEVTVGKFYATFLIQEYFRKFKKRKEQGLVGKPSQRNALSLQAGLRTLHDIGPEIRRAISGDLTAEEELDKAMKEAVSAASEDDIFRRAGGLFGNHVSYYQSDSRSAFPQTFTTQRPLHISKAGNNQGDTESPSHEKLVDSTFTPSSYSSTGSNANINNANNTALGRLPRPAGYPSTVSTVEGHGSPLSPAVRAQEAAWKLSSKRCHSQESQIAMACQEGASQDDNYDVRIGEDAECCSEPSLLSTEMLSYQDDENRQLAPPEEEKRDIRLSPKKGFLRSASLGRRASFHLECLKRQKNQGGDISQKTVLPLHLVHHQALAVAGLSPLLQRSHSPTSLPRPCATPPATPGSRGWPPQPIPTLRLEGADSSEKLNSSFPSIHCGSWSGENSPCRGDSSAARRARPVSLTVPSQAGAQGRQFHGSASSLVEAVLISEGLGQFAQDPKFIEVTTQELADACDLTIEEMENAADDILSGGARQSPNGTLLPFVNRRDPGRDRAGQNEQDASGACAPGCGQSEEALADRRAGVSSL
T1 sequence (P13806 27-960 partner limits assumed, other chains not shown): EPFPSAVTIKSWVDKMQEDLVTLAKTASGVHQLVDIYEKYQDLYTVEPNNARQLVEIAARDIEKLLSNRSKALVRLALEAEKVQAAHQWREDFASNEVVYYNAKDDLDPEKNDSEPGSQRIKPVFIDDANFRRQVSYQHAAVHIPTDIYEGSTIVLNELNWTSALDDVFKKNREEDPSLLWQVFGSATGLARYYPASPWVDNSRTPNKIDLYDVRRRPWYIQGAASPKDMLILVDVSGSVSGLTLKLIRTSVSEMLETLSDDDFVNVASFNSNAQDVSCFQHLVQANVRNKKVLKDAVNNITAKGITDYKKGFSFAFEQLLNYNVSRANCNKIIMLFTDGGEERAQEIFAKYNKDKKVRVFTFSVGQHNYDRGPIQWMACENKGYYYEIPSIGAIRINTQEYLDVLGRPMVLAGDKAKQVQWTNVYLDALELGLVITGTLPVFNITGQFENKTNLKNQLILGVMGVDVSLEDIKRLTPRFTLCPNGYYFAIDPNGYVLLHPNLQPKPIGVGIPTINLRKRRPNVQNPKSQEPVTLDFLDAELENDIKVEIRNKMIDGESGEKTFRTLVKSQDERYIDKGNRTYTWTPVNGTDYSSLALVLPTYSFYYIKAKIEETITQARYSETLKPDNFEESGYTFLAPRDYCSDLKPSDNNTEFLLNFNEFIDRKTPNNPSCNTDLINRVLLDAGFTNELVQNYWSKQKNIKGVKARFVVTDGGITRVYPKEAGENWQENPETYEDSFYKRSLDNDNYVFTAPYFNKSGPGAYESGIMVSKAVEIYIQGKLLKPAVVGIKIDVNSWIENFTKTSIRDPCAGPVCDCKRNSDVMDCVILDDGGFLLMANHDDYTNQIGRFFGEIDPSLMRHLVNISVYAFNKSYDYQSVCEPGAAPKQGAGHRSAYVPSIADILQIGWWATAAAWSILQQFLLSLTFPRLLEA
T1 sequence (P13806 961-1106 partner limits assumed, other chains not shown): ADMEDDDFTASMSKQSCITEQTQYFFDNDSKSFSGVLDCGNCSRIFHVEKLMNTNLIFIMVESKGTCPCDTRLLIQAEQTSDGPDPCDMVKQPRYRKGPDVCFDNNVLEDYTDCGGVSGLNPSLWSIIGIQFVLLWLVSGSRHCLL

`CC1=C(C(=O)OCCN(C)Cc2ccccc2)C(c2cccc([N+](=O)[O-])c2)C2=C(CCCCCS2(=O)=O)N1` (stereo not drawn) [5 3-NO2C6 H4, N-Benzyl-N-methylaminoethyl 3,4,5,6,7,10-hexahydro-8-methyl-10-(3-nitrophenyl)-1,1-dioxo-2H-thiacycloocteno[3,2-b]pyridine-9-carboxylate]: the values for the inhibition at 0.1 µM in the test with Aorta Muscle and in the test on trachealis muscle were 67% and 43%, respectively. On calcium channels, the IC50 amounted to 45 nM.

Regarding `CC1=C(C(=O)OCCN(C)c2ccccc2)C(c2c(F)c(F)c(F)c(F)c2F)C2=C(CCCCCS2(=O)=O)N1` (stereo not drawn) [5 C6 F5 CH2 CH2 NCH3 C6 H5, N-Methyl-N-phenylaminoethyl 10-(2,3,4,5,6-pentafluorophenyl)-3,4,5,6,7,10-hexahydro-8-methyl-1,1-dioxothiacycloocteno[3,2-b]pyridine-9-carboxylate], the figures for the inhibition at 0.1 µM in the test on Aorta Muscle and in the test on trachealis muscle were 63% and 47%, respectively. Further, the half-maximal inhibitory concentration (IC50) at calcium channels was 18 nM.

As to `CC1=C(C(=O)OCCN(C)Cc2ccccc2)C(c2cc(F)ccc2F)C2=C(CCCCS2(=O)=O)N1` (stereo not drawn) [4 2,5-F2C6 H3], the results for the inhibition at 0.1 µM with Aorta Muscle and in the test on trachealis muscle were 47% and 43%, respectively. Further, the IC50 on calcium channels was determined as 120 nM.

In the case of `CC1=C(C(=O)OCCN(C)Cc2ccccc2)C(c2ccccc2OC(F)F)C2=C(CCCCCS2(=O)=O)N1` (stereo not drawn) [5 2-OCHF2C6 H4, N-Benzyl-N-methylaminoethyl 10-(2-difluoromethoxyphenyl)-3,4,5,6,7,10-hexahydro-8-methyl-1,1-dioxothiacycloocteno[3,2-b]pyridine-9-carboxylate], 0.01 µM produced 80% inhibition in the test with Aorta Muscle (concentration 0.01 μM). On calcium channels, the concentration for half-maximal inhibition (IC50) was found to be 95 nM. Besides, the inhibition at 0.1 µM in the test with trachealis muscle came to 76%.

In the case of `CC1=C(C(=O)OCCN(C)CCc2ccccc2)C(c2cccc(Cl)c2Cl)C2=C(CCCCCS2(=O)=O)N1` (stereo not drawn), in the test on Aorta Muscle, 0.1 µM produced 67% inhibition. Also, the half-maximal inhibitory concentration (IC50) at calcium channels was found to be 149 nM. The inhibition at 1 µM with trachealis muscle was found to be 57%.

As for `CC1=C(C(=O)OCCCN(C)Cc2ccccc2)C(c2ccccc2[N+](=O)[O-])C2=C(CCCCS2(=O)=O)N1` (stereo not drawn) [4 2-NO2C6 H4 CH2 CH2 CH2 NCH3 CH2 C6 H5], in the test with Aorta Muscle, the inhibition at 0.1 µM worked out at 7.7%. The 50% inhibitory concentration (IC50) at calcium channels came to 1000 nM. Besides, in the test with trachealis muscle, the inhibition at 1 µM worked out at 41%.

Turning to `CC1=C(C(=O)OCCN(C)Cc2ccccc2)C(c2ccccc2[N+](=O)[O-])C2=C(CCCCS2(=O)=O)N1` (stereo not drawn) [4 2-NO2C6 H4], the figures for the inhibition at 0.1 µM in the test on Aorta Muscle and in the test on trachealis muscle were 44% and 49%, respectively. Also, the concentration for half-maximal inhibition (IC50) at calcium channels stood at 440 nM.

Take `CC1=C(C(=O)OCCN(C)c2ccccc2)C(c2cccc([N+](=O)[O-])c2)C2=C(CCCCS2(=O)=O)N1` (stereo not drawn) [4 3-NO2C6 H4 CH2 CH2 NCH3 C6 H5]: the inhibition at 0.1 µM with Aorta Muscle was determined as 53%. The IC50 at calcium channels came to 45 nM. In the test with trachealis muscle, the inhibition at 1 µM turned out to be 65%.

As to `CC1=C(C(=O)OCCN2CCc3ccccc32)C(c2cccc([N+](=O)[O-])c2)C2=C(CCCCS2(=O)=O)N1` (stereo not drawn) [4 3-NO2C6 H4 drawing 9], in the test with Aorta Muscle, the inhibition at 0.1 µM is 80%. The IC50 at calcium channels came to 100 nM. The inhibition at 1 µM in the test on trachealis muscle came out at 56%.

Take `CC1=C(C(=O)OCCN(C)Cc2ccccc2)C(c2ccccc2C(F)(F)F)C2=C(CCCCS2(=O)=O)N1` (stereo not drawn) [4 2-CF3C6 H4, N-Benzyl-N-methylaminoethyl 2,4,5,6,9-hexahydro-7-methyl-9-(2-trifluoromethylphenyl)-1,1-dioxothiacyclohepteno[3,2-b]pyridine-8-carboxylate]: the values for the inhibition at 0.1 µM with Aorta Muscle and in the test on trachealis muscle were 85% and 64%, respectively. Besides, the IC50 at calcium channels worked out at 160 nM.

As to `CC1=C(C(=O)OCCc2ccccn2)C(c2cccc([N+](=O)[O-])c2)C2=C(CCCCCS2(=O)=O)N1` (stereo not drawn) [5 3-NO2C6 H4 drawing 10], the figures for the inhibition at 0.1 µM in the test with Aorta Muscle and with trachealis muscle were 48% and 53%, respectively. Also, at calcium channels, the half-inhibitory concentration (IC50) was determined as 65 nM.

`CC1=C(C(=O)OCCN(C)Cc2ccccc2)C(c2cccc(C(F)(F)F)c2Cl)C2=C(CCCCCS2(=O)=O)N1` (stereo not drawn) [5 2-Cl,3-CF3C6 H3, N-Benzyl-N-methylaminoethyl 10-(2-chloro-3-trifluoromethylphenyl)-3,4,5,6,7,10-hexahydro-8-methyl-1,1-dioxothiacycloocteno[3,2-b]pyridine-9-carboxylate]: the inhibition at 0.1 µM in the test with Aorta Muscle is 78%; in the test on trachealis muscle, 57%. At calcium channels, the 50% inhibitory concentration (IC50) is 200 nM.

Take `CC1=C(C(=O)OCCNc2ccccc2)C(c2cccc([N+](=O)[O-])c2)C2=C(CCCCS2(=O)=O)N1` (stereo not drawn) [4 3-NO2C6 H4 CH2 CH2 NHC6 H5]: the inhibition at 0.1 µM in the test with Aorta Muscle worked out at 48%. At calcium channels, the 50% inhibitory concentration (IC50) is 16 nM. Moreover, the inhibition at 1 µM in the test on trachealis muscle stood at 72%.

In turn, `CC1=C(C(=O)OC2CCN(Cc3ccccc3)CC2)C(c2cccc([N+](=O)[O-])c2)C2=C(CCCCS2(=O)=O)N1` (stereo not drawn) [4 3-NO2C6 H4 drawing 7] displayed an inhibition at 0.1 µM with Aorta Muscle of 12%. For the same compound, the IC50 on calcium channels was found to be 860 nM. The inhibition at 2 µM in the test with trachealis muscle worked out at 17%.

`CC1=C(C(=O)OCCN(C)Cc2ccccc2)C(c2cccc(C(F)(F)F)c2Cl)C2=C(CCCCS2(=O)=O)N1` (stereo not drawn) [4 2-Cl,3-CF3C6 H3] returned an inhibition at 0.1 µM with Aorta Muscle of 66%. Also, the IC50 on calcium channels was 390 nM. In addition, the inhibition at 0.2 µM in the test on trachealis muscle turned out to be 50%.

Turning to `CC1=C(C(=O)OCCN(C)Cc2ccccc2)C(c2c(F)cccc2Cl)C2=C(CCCCS2(=O)=O)N1` (stereo not drawn) [4 2-Cl,6-FC6 H3, N-Benzyl-N-methylaminoethyl 9-(2-chloro-6-fluorophenyl)-2,4,5,6,9-hexahydro-7-methyl-1,1-dioxothiacyclohepteno[3,2-b]pyridine-8-carboxylate], the figures for the inhibition at 0.1 µM with Aorta Muscle and with trachealis muscle were 66% and 50%, respectively. Moreover, on calcium channels, the IC50 came to 29 nM.

As for `CC1=C(C(=O)OCCN(C)Cc2ccccc2)C(c2c(F)c(F)c(F)c(F)c2F)C2=C(CCCCCS2(=O)=O)N1` (stereo not drawn) [5 C6 F5, N-Benzyl-N-methylaminoethyl 10-(2,3,4,5,6-pentafluorophenyl)-3,4,5,6,7,10-hexahydro-8-methyl-1,1-dioxo-2H-thiacycloocteno[3,2-b]pyridine-9-carboxylate], the inhibition at 0.1 µM worked out at 70% in the test with Aorta Muscle and 50% in the test on trachealis muscle. Also, at calcium channels, the IC50 stood at 87 nM.

As for `CC1=C(C(=O)OCCN(C)Cc2ccccc2)C(c2cc([N+](=O)[O-])ccc2Cl)C2=C(CCCCS2(=O)=O)N1` (stereo not drawn) [4 2-Cl,5-NO2C6 H3], the inhibition at 0.1 µM in the test with Aorta Muscle was determined as 63%; in the test on trachealis muscle it was 38%. Moreover, at calcium channels, the IC50 stood at 260 nM.

In the case of `CC1=C(C(=O)OCCN2CCc3ccccc3C2)C(c2cccc([N+](=O)[O-])c2)C2=C(CCCCS2(=O)=O)N1` (stereo not drawn) [4 3-NO2C6 H4 drawing 11], the inhibition at 0.1 µM with Aorta Muscle was 53%. In addition, the IC50 at calcium channels was 200 nM. For the same compound, the inhibition at 0.2 µM in the test on trachealis muscle is 45%.

`CC1=C(C(=O)OCCO)C(c2cccc([N+](=O)[O-])c2)C2=C(CCCCS2(=O)=O)N1` (stereo not drawn) [4 3-NO2C6 H4 CH2 CH2 OH] registered an inhibition at 3 µM with Aorta Muscle (concentration 3.0 μM) of 41%. For the same compound, the IC50 on calcium channels stood at 2400 nM. The inhibition at 2 µM in the test on trachealis muscle is 23%.

`CC1=C(C(=O)OCCN(C)Cc2ccccc2)C(c2cccc(C(F)(F)F)c2Cl)C2=C(CCCCCCS2(=O)=O)N1` (stereo not drawn) [6 2-Cl,3-CF3C6 H3, N-Benzyl-N-methylaminoethyl 19-(2-chloro-3-trifluoromethylphenyl)-2,3,4,5,6,7,8,11-octahydro-9-methyl-1,1-dioxothiacyclononeno[3,2-b]pyridine-10-carboxylate]: in the test with Aorta Muscle, the inhibition at 0.1 µM came out at 30%. Moreover, the 50% inhibitory concentration (IC50) at calcium channels amounted to 470 nM. The inhibition at 2 µM in the test on trachealis muscle turned out to be 46%.

Regarding `CC1=C(C(=O)OCCN(C)c2ccccc2)C(c2ccccc2[N+](=O)[O-])C2=C(CCCCS2(=O)=O)N1` (stereo not drawn) [4 2-NO2C6 H4 CH2 CH2 NCH3 C6 H5], the inhibition at 0.1 µM in the test on Aorta Muscle is 43%; with trachealis muscle it was 57%. In addition, on calcium channels, the concentration for half-maximal inhibition (IC50) was 86 nM.

In the test with Aorta Muscle, `CC1=C(C(=O)OCCCN(C)Cc2ccccc2)C(c2cccc([N+](=O)[O-])c2)C2=C(CCCCS2(=O)=O)N1` (stereo not drawn) [4 3-NO2 C6 H4 CH2 CH2 CH2 NCH3 CH2 C6 H5] had an inhibition at 0.1 µM of 25%. Moreover, on calcium channels, the concentration for half-maximal inhibition (IC50) worked out at 290 nM. Also, in the test on trachealis muscle, the inhibition at 2 µM was determined as 50%.

Turning to `CC1=C(C(=O)OCCN(C)Cc2ccccc2)C(c2ccccc2F)C2=C(CCCCS2(=O)=O)N1` (stereo not drawn) [4 2-FC6 H4], in the test with Aorta Muscle, the inhibition at 0.1 µM came to 32%. The IC50 at calcium channels came out at 440 nM. In the test with trachealis muscle, the inhibition at 2 µM is 84%.
